Measured values published in patent US20230250292A1, “AROMATIC HYDROCARBON-SOLUBLE ANTHRAQUINONE” (Dow Global Technologies LLC, priority 2020, published 2023).

Columns and labels:
[1] = Storage stability in Aromatic 200 solvent at -10° C.; type: physicochemical; settings: -10° C. freezer
Protocol: Storage stability experiments of Examples 1-3 as well as Comparative Examples 4 and 5 as well as Comparative Example 6 (a 50:50 molar physical blend of Comparative Examples 4 and 5) are conducted as follows. For each Example, a calibration line is generated by preparing 0.5 and 1.7 wt% solutions of each Example using a batch of Aromatic 200 supplied from TOTAL, identified as ATOSOL 200ND, and measuring the UV/vis absorbance at these known concentrations. The solutions are heated to 60° C. with stirring overnight and allowed to cool to ambient temperature for at least several hours, preferably overnight. For the 0.5 and 1.7 wt% solutions for each marker, UV/vis measurements are prepared by diluting an aliquot of each solution (exact weight recorded) into a known amount of xylenes to target an absorbance value below approximately 2.5. […] For other Examples, several drops of the targeted 10 wt% solution are filtered and a known amount of the filtrate is diluted with a known amount of xylenes to target an absorbance value below approximately 2.5. The initial concentration is determined by measuring the absorbance value of a known concentration of the filtered and diluted aliquot taken from the targeted 10 wt% solution. The expected UV/vis absorbance value of the aliquot is calculated based on the calibration standards, and this value is compared against the actual measured absorbance value. […]

[2] = Maximum (initial) soluble concentration in Aromatic 200 solvent by UV/vis; type: physicochemical; settings: for Measured Initial Concentration: Aromatic 200 (ATOSOL 200ND), targeted 10 wt% solution, filtered, diluted in xylenes, UV/vis against 0.5 and 1.7 wt% calibration
Protocol: For each Example, a calibration line is generated by preparing 0.5 and 1.7 wt% solutions of each Example using a batch of Aromatic 200 supplied from TOTAL, identified as ATOSOL 200ND, and measuring the UV/vis absorbance at these known concentrations. The solutions are heated to 60° C. with stirring overnight and allowed to cool to ambient temperature for at least several hours, preferably overnight. For the 0.5 and 1.7 wt% solutions for each marker, UV/vis measurements are prepared by diluting an aliquot of each solution (exact weight recorded) into a known amount of xylenes to target an absorbance value below approximately 2.5. […] For other Examples, several drops of the targeted 10 wt% solution are filtered and a known amount of the filtrate is diluted with a known amount of xylenes to target an absorbance value below approximately 2.5. The initial concentration is determined by measuring the absorbance value of a known concentration of the filtered and diluted aliquot taken from the targeted 10 wt% solution. The expected UV/vis absorbance value of the aliquot is calculated based on the calibration standards, and this value is compared against the actual measured absorbance value. Measured values below the expected value indicate the marker is not fully soluble at this 10 wt% concentration.

SMILES	Storage stability: Concentration after storage at -10° C., 4 days [1]	Measured Initial Concentration [2]	Solubility of calibration solution in Aromatic 200 (solids observed) ([2]; 1.7 wt% solution in Aromatic 200, heated to 60° C. overnight, cooled to ambient)
CCCCc1ccc(Nc2ccc(Nc3ccc(CCCC)cc3)c3c2C(=O)c2c(Nc4ccc(CCCC)cc4)ccc(Nc4ccc(CCCC)cc4)c2C3=O)cc1 [Comparative Example 4, 1,4,5,8-tetrakis(4-(n-butyl)phenylamino)anthracene-9,10-dione]	4.2 wt%	7.0 wt%	
Cc1ccc(Nc2ccc(Nc3ccc(C)cc3)c3c2C(=O)c2c(Nc4ccc(C)cc4)ccc(Nc4ccc(C)cc4)c2C3=O)cc1 [Comparative Example 5, 1,4,5,8-tetrakis(4-methylaniline)anthracene-9,10-dione]		Solids observed at 1.7%, no measurement	solids are observed at 1.7 wt%
